Source: patent publication US20210401863A1, “TREATMENT AND PREVENTION OF NEISSERIA GONORRHOEAE INFECTION USING CMP-ACTIVATED NONULOSONATE ANALOG COMPOUNDS” (NATIONAL RESEARCH COUNCIL OF CANADA, priority 2015, published 2021)
Read-outs that look alike come from different tables or passages of the source.

Legend:
N. gonorrhoeae F62 ΔlgtD = assay type: cell-based, Neisseria gonorrhoeae
Protocol: Generally, bacteria (F62 ΔlgtD) grown overnight on chocolate agar plates were suspended in gonococcal liquid media supplemented with IsoVitaleX [29] that contained specified concentrations of the CMP-nonulosonate. Bacteria were then incubated at 37° C. for the period specified in each experiment.
Serum bactericidal assays were performed as follows, similar to methods outlined in [32,33] and in U.S. Pat. No. 9,765,106. Bacteria were harvested from an overnight culture on chocolate agar plates and ˜10^5 CFU of Ng were grown in liquid media containing the concentrations of CMP-NuIO as specified for each experiment. Bacteria were diluted in Morse A and ˜2000 CFU of Ng F62 ΔlgtD were incubated with NHS (concentration specified for each experiment). The final reaction volumes were maintained at 150 μL. Aliquots of 25 μL of reaction mixtures were plated onto chocolate agar in duplicate at the beginning of the assay (t0) and again after incubation at 37° C. for 30 minutes (t30). Survival was calculated as the number of viable colonies at t30 relative to t0.
Addition of a terminal Neu5Ac residue to the LNnT LOS of N. gonorrhoeae that occurs in vivo or following the addition of CMP-Neu5Ac to growth media results in resistance to complement-dependent killing. We next determined the effects of LNnT incorporation of KDN on the ability of N. gonorrhoeae F62 ΔlgtD to resist complement-dependent killing by normal human sera at concentrations of 3.3% or 10%. Bacteria were grown either in media alone, or media supplemented with 20 μg/mL of CMP-Neu5Ac or CMP-KDN. In addition, CMP-NulO competition experiments were also performed with CMP-Neu5Ac, CMP-Leg5Ac7Ac and CMP-KDN at CMP-NulO concentrations of either 20 μg/mL or 2 μg/mL as indicated, where the second CMP-NulO was added 15 minutes after the first (Table 1 below). To note, these CMP-NulO competition experiments are a method to examine the ability of select CMP-NulOs to counter the enhanced serum resistance due to CMP-Neu5Ac addition, providing information on their therapeutic potential (as any potential therapeutic will be required to compete with CMP-Neu5Ac in vivo).

purified human FH = assay: Factor H (FH) binding to gonococci by flow cytometry; assay type: cell-based; conditions: F62 ΔlgtD grown with 20 μg/mL CMP-NulO, human FH 20 μg/mL
Protocol: FIG. 1: CMP-KDN serves as a substrate for gonococcal LOS and incorporation of KDN on gonococcal lacto-N-neotetraose LOS enhances factor H (FH) binding. A. Incorporation of KDN by gonococci. Gonococcal strain F62 ΔlgtD (expresses lacto-N-neotetraose (LNnT) from Hepl) was grown in media containing CMP-KDN (20 μg/mL) and binding of mAb 3F11 was measured by flow cytometry. mAb 3F11 binds only to […] LNnT; substitution of the terminal Gal of LNnT, for example with a NulO, will decrease mAb 3F11 binding. Approximately 5×10^7 bacteria were incubated with mAb 3F11 tissue culture supernatants for 15 minutes at 37° C. Binding of mAb 3F11 was disclosed with anti-mouse IgM FITC (Sigma; dilution of 1:100). Bacteria grown in CMP-Neu5Ac or in media alone were used as positive and negative controls for sialylation, respectively. A representative histogram is shown in the upper panel. […] B. Factor H (FH) binding to gonococci grown in CMP-KDN. Approximately 5×10^7 bacteria grown in media alone (no sialic acid), media plus CMP-Neu5Ac (20 μg/mL; positive control for FH binding) or in media containing CMP-KDN (20 μg/mL) were incubated with purified human FH (20 μg/mL) in HBSS** for 15 minutes at 37° C. and bound FH was detected with affinity isolated goat anti-human FH followed by anti-goat IgG FITC (Sigma; 1:100 dilution). A representative histogram is shown in the upper panel. […]

With Nc1ccn([C@@H]2O[C@H](COP(=O)(O)O[C@@]3(C(=O)O)CC(O)[C@@H](O)C([C@H](O)[C@H](O)CO)O3)C(O)C2O)c(=O)n1 (stereo partly drawn) [CMP-KDN, cytidine 5′-monophospho-3-deoxy-D-glycero-D-galacto-nonulosonic acid] the “% survival in 3.3% serum” value (N. gonorrhoeae F62 ΔlgtD; CMP-Neu5Ac (20 μg/mL) first, labelled CMP-NulO (20 μg/mL) added 15 minutes later, 3.3% serum) was 107%, the “% survival in 10% serum” value (N. gonorrhoeae F62 ΔlgtD; CMP-Neu5Ac (20 μg/mL) first, labelled CMP-NulO (20 μg/mL) added 15 minutes later, 10% serum) was 108% and the “serum resistance (in words)” value (N. gonorrhoeae F62 ΔlgtD; CMP-NulO alone, 3.3% serum) was “complete serum resistance was observed”. The “serum sensitivity (in words)” value (N. gonorrhoeae F62 ΔlgtD; CMP-NulO alone, 10% serum) was “serum sensitivity was observed”, the “countering of serum resistance mediated by CMP-Neu5Ac (competition, in words)” value (N. gonorrhoeae F62 ΔlgtD; CMP-NulO competition, second CMP-NulO 15 minutes after the first, 3.3% and 10% serum) was “could only counter CMP-Neu5Ac induced serum resistance if it was provided before CMP-Neu5Ac” and the “% survival in 3.3% serum” value (N. gonorrhoeae F62 ΔlgtD; Table 1, CMP-NulO 20 μg/mL alone, 3.3% serum) was 110%. The “% survival in 10% serum” value (N. gonorrhoeae F62 ΔlgtD; Table 1, CMP-NulO 20 μg/mL alone, 10% serum) was 11%, the “% survival in 3.3% serum” value (N. gonorrhoeae F62 ΔlgtD; labelled CMP-NulO (20 μg/mL) first, CMP-Neu5Ac (2 μg/mL) added 15 minutes later, 3.3% serum) was 107% and the “% survival in 10% serum” value (N. gonorrhoeae F62 ΔlgtD; labelled CMP-NulO (20 μg/mL) first, CMP-Neu5Ac (2 μg/mL) added 15 minutes later, 10% serum) was 10%. For the same molecule, the “% survival in 3.3% serum” value (N. gonorrhoeae F62 ΔlgtD; labelled CMP-NulO (20 μg/mL) first, CMP-Neu5Ac (20 μg/mL) added 15 minutes later, 3.3% serum) was 107%, the “% survival in 10% serum” value (N. gonorrhoeae F62 ΔlgtD; labelled CMP-NulO (20 μg/mL) first, CMP-Neu5Ac (20 μg/mL) added 15 minutes later, 10% serum) was 11% and the “fH binding to bacteria” value (purified human FH) was “half of that observed for Neu5Ac”.
